Measurements: the supplement of paper PMC4862054

Tests used:
HDQ-P1 [1] = test: normalised response (% of control), CellTiter-Glo; higher = more viable cells (100 = DMSO, 0 = benzethonium chloride kill control); conditions: incubation time: 72 h
Protocol: (§1)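 DSRT, 72 h incubation, CellTox Green / CellTiter-Glo readout. Signal is normalised to DMSO and benzethonium chloride controls. Value is the normalised response at the highest dose.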

MDA-MB-468 [2] = test: as above; conditions: incubation time: 72 h
Protocol: as §1

BT-549 [3] = test: as above; conditions: incubation time: 72 h
Protocol: as §1

Hs578T [4] = test: as above; conditions: incubation time: 72 h
Protocol: as §1

CAL-120 [5] = test: as above; conditions: incubation time: 72 h
Protocol: as §1

DU-4475 [6] = test: as above; conditions: incubation time: 72 h
Protocol: as §1

MDA-MB-231 [7] = test: as above; conditions: incubation time: 72 h
Protocol: as §1

MDA-MB-453 [8] = test: as above; conditions: incubation time: 72 h
Protocol: as §1

CAL-85-1 [9] = test: as above; conditions: incubation time: 72 h
Protocol: as §1

MFM-223 [10] = test: as above; conditions: incubation time: 72 h
Protocol: as §1

CAL-51 = conditions: 72 h
Procedure, shortened: (§2)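 For viability and cell death testing, 384-well plates carried compound at 5 concentrations in 10-fold steps over a compound-specific 10,000-fold range, and breast cancer cell lines were seeded in 20 µl suspension. After 72 h incubation, cell death was read by CellTox Green fluorescence (485/520 nm) before viability was read by CellTiter-Glo luminescence. EC50 was fitted from the dose-response curves and censored at the top concentration. Normalisation on each plate was to 0.1 % DMSO and a positive kill control.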

MDA-MB-468 [11] = conditions: 72 h
Procedure, shortened: (§3)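 EC50 is the value from a fitted percent-inhibition dose-response curve, censored at the highest concentration, and rows with zero drug sensitivity score were not kept. The underlying assay seeded breast cancer cell lines in 20 µl onto 384-well plates pre-loaded with compound in 5 µl medium for 72 h. Viability was then read by CellTiter-Blue fluorescence at 560/590 nm after 2 h at 37 °C, with each plate normalised to vehicle and a positive kill control.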

SK-BR-3 [12] = conditions: 72 h
Procedure, shortened: as §3

BT-549 [13] = conditions: 72 h
Procedure, shortened: as §3

Hs578T [14] = conditions: 72 h
Procedure, shortened: as §3

CAL-120 [15] = conditions: 72 h
Procedure, shortened: as §3

MDA-MB-436 [16] = conditions: 72 h
Procedure, shortened: as §3

MDA-MB-231 [17] = conditions: 72 h
Procedure, shortened: as §3

HCC1937 [18] = conditions: 72 h
Procedure, shortened: as §3

MFM-223 [19] = conditions: 72 h
Procedure, shortened: as §3

HCC1143 [20] = conditions: 72 h
Procedure, shortened: as §3

HCC1599 [21] = conditions: 72 h
Procedure, shortened: as §3

BT-474 = conditions: 72 h
Procedure, shortened: as §2

MDA-MB-468 [22] = conditions: 72 h; remark: listed apart in the source
Procedure, shortened: as §2

SK-BR-3 [23] = conditions: 72 h; remark: listed apart in the source
Procedure, shortened: as §2

BT-549 [24] = conditions: 72 h; remark: listed apart in the source
Procedure, shortened: as §2

MDA-MB-231 [25] = conditions: 72 h; remark: listed apart in the source
Procedure, shortened: as §2

HCC1937 [26] = conditions: 72 h; remark: listed apart in the source
Procedure, shortened: as §2

MDA-MB-453 [27] = conditions: 72 h
Procedure, shortened: as §2

CAL-85-1 [28] = conditions: 72 h
Procedure, shortened: as §2

MDA-MB-436 [29] = conditions: 72 h; remark: listed apart in the source
Procedure, shortened: as §2

HDQ-P1 [30] = conditions: 72 h
Procedure, shortened: as §2

Hs578T [31] = conditions: 72 h; remark: listed apart in the source
Procedure, shortened: as §2

CAL-120 [32] = conditions: 72 h; remark: listed apart in the source
Procedure, shortened: as §2

DU-4475 [33] = conditions: 72 h
Procedure, shortened: as §2

MCF-10A = conditions: 72 h
Procedure, shortened: as §2

MFM-223 [34] = conditions: 72 h; remark: listed apart in the source
Procedure, shortened: as §2

HCC1143 [35] = conditions: 72 h; remark: listed apart in the source
Procedure, shortened: as §2

HCC1599 [36] = conditions: 72 h; remark: listed apart in the source
Procedure, shortened: as §2

Row | Structure (SMILES) | normalised response (HDQ-P1 [1]) | normalised response (MDA-MB-468 [2]) | normalised response (BT-549 [3]) | normalised response (Hs578T [4]) | normalised response (CAL-120 [5]) | normalised response (DU-4475 [6]) | normalised response (MDA-MB-231 [7]) | normalised response (MDA-MB-453 [8]) | normalised response (CAL-85-1 [9]) | normalised response (MFM-223 [10]) | EC50, CellTiter-Glo (CAL-51) | EC50, CellTiter-Blue viability (MDA-MB-468 [11]) | EC50, CellTiter-Blue viability (SK-BR-3 [12]) | EC50, CellTiter-Blue viability (BT-549 [13]) | EC50, CellTiter-Blue viability (MDA-MB-436 [16]) | EC50, CellTiter-Blue viability (MDA-MB-231 [17]) | EC50, CellTiter-Blue viability (HCC1599 [21]) | EC50, CellTiter-Glo (CAL-85-1 [28]) | other results
1 | COc1ncc(-c2ccc3nccc(-c4ccnnc4)c3c2)cc1NS(=O)(=O)c1ccc(F)cc1F (1000 nM) | 12.8% | 12.7% | 13.9% | 16.1% | 29.9% | 9.21% | 33.7% | 7.5% | 21% | 33.4% | – | – | – | – | – | – | – | – | –
2 | C[C@@H]1CCN(C(=O)CC#N)C[C@@H]1N(C)c1ncnc2[nH]ccc12 [Tofacitinib] | – | – | – | – | – | – | – | – | – | – | 52.1 nM | – | – | – | – | – | – | – | –
3 | Cn1cnc2c(F)c(Nc3ccc(Br)cc3F)c(C(=O)NOCCO)cc21 [MEK-162] (1000 nM) | 71.5% | 88.3% | 92.7% | 90% | 86.6% | 1.31% | 74.8% | 97.9% | 78.8% | 96.2% | – | – | – | – | – | – | – | – | –
4 | COc1cccc2c1C(=O)c1c(O)c3c(c(O)c1C2=O)C[C@@](O)(C(C)=O)C[C@@H]3O[C@H]1C[C@H](N)[C@H](O)[C@H](C)O1 [Daunorubicin] (1000 nM) | 27.9% | 8.42% | 10.7% | 35.1% | 41.2% | 0.14% | 8.81% | 4.31% | 7.68% | 34.7% | – | – | – | – | – | – | – | – | –
5 | C[C@@]1(C(=O)Nc2ccc(F)nc2)CCCN1c1nc(Nc2cc(C3CC3)n[nH]2)c2cccn2n1 (10000 nM) | 8.28% | 20.4% | 12.7% | 44.7% | 13.4% | 31.4% | 26.1% | 127% | 38.9% | 25.2% | – | – | – | – | – | – | – | – | –
6 | COC1=CC(c2cc3ccccc3[nH]2)=N/C1=C\c1[nH]c(C)cc1C [Obatoclax] | – | – | – | – | – | – | – | – | – | – | 3920 nM | 105 nM | 38.1 nM | 192 nM | 99.1 nM | 73.2 nM | 678 nM | 126 nM | EC50, CellTiter-Blue viability (Hs578T [14]): 162 nM; EC50, CellTiter-Blue viability (CAL-120 [15]): 25.9 nM; EC50, CellTiter-Blue viability (HCC1937 [18]): 22.4 nM; EC50, CellTiter-Blue viability (MFM-223 [19]): 1010 nM; EC50, CellTiter-Blue viability (HCC1143 [20]): 171 nM; EC50, CellTiter-Glo (BT-474): 128 nM; EC50, CellTiter-Glo (MDA-MB-468 [22]): 664 nM; EC50, CellTiter-Glo (SK-BR-3 [23]): > 10000 nM; EC50, CellTiter-Glo (BT-549 [24]): 3600 nM; EC50, CellTiter-Glo (MDA-MB-231 [25]): 131 nM; EC50, CellTiter-Glo (HCC1937 [26]): 153 nM; EC50, CellTiter-Glo (MDA-MB-453 [27]): 2620 nM
7 | CS(=O)(=O)OCCCCOS(C)(=O)=O [Busulfan] (100000 nM) | 98.4% | 108% | 107% | 102% | 101% | 101% | 101% | 102% | 104% | 107% | – | – | – | – | – | – | – | – | –
8 | O=c1[nH]cc(F)c(=O)[nH]1 [Fluorouracil] | – | – | – | – | – | – | – | – | – | – | – | > 10000 nM | 532 nM | 1240 nM | 7520 nM | 2880 nM | 2520 nM | 272 nM | EC50, CellTiter-Blue viability (CAL-120 [15]): 2530 nM; EC50, CellTiter-Glo (SK-BR-3 [23]): 556 nM; EC50, CellTiter-Glo (MDA-MB-436 [29]): 425 nM
9 | C[C@@]1(C(=O)Nc2ccc(F)nc2)CCCN1c1nc(Nc2cc(C3CC3)n[nH]2)c2cccn2n1 | – | – | – | – | – | – | – | – | – | – | 1060 nM | 772 nM | 588 nM | 1310 nM | 6370 nM | 435 nM | 70.8 nM | 467 nM | EC50, CellTiter-Blue viability (Hs578T [14]): 4740 nM; EC50, CellTiter-Blue viability (CAL-120 [15]): 1930 nM; EC50, CellTiter-Blue viability (HCC1937 [18]): 3300 nM; EC50, CellTiter-Blue viability (MFM-223 [19]): 1310 nM; EC50, CellTiter-Blue viability (HCC1143 [20]): 258 nM; EC50, CellTiter-Glo (BT-474): 2050 nM; EC50, CellTiter-Glo (HDQ-P1 [30]): 402 nM; EC50, CellTiter-Glo (MDA-MB-468 [22]): 207 nM; EC50, CellTiter-Glo (SK-BR-3 [23]): 127 nM; EC50, CellTiter-Glo (BT-549 [24]): 1420 nM; EC50, CellTiter-Glo (Hs578T [31]): 7980 nM; EC50, CellTiter-Glo (CAL-120 [32]): 1250 nM; EC50, CellTiter-Glo (MDA-MB-436 [29]): 2720 nM; EC50, CellTiter-Glo (DU-4475 [33]): 4110 nM; EC50, CellTiter-Glo (MDA-MB-231 [25]): 1770 nM; EC50, CellTiter-Glo (MCF-10A): 21.6 nM; EC50, CellTiter-Glo (MFM-223 [34]): 1570 nM; EC50, CellTiter-Glo (HCC1143 [35]): 4150 nM; EC50, CellTiter-Glo (HCC1599 [36]): 2260 nM
10 | Cn1c(=O)c(F)c(Nc2ccc(I)cc2F)c2c(=O)n(C[C@@H](O)CO)cnc21 [TAK-733] (1000 nM) | 55.3% | 73.6% | 84% | 70.2% | 64.2% | 0.81% | 56.4% | 97.7% | 43.1% | 70.2% | – | – | – | – | – | – | – | – | –
11 | CCCC(CCC)C(=O)O [Valproic acid] | – | – | – | – | – | – | – | – | – | – | 441000 nM | – | – | – | – | – | – | – | –
12 | Cn1cnc2c(F)c(Nc3ccc(Br)cc3F)c(C(=O)NOCCO)cc21 [MEK-162] | – | – | – | – | – | – | – | – | – | – | – | – | – | – | – | 364 nM | 106 nM | – | EC50, CellTiter-Blue viability (HCC1143 [20]): 9.21 nM; EC50, CellTiter-Glo (BT-474): 113 nM; EC50, CellTiter-Glo (HDQ-P1 [30]): 13.5 nM; EC50, CellTiter-Glo (CAL-120 [32]): > 1000 nM; EC50, CellTiter-Glo (DU-4475 [33]): 78.7 nM; EC50, CellTiter-Glo (MCF-10A): 11.8 nM
13 | C[C@@H]1C=C2C(=O)O[C@@H]3CC[C@H](C1)[C@]23O [Galiellalactone] | – | – | – | – | – | – | – | – | – | – | 2320 nM | 7120 nM | 12600 nM | 5580 nM | 14700 nM | 7150 nM | – | 10500 nM | EC50, CellTiter-Blue viability (Hs578T [14]): 44600 nM; EC50, CellTiter-Blue viability (HCC1937 [18]): 16400 nM; EC50, CellTiter-Blue viability (MFM-223 [19]): 38200 nM; EC50, CellTiter-Glo (MDA-MB-468 [22]): 7120 nM; EC50, CellTiter-Glo (BT-549 [24]): 17700 nM
